Measured values: patent US11382328B2, “Rapid drug discovery methods for pathogen inactivation” (priority 2019, dated 2022)

Test system: E. coli strain W3110
Assay: Synergy assays: Biolog chemical sensitivity panels with Group IB metal, coefficient of drug interaction (CDI) from relative growth
Type: cell-based
Details: for CDI (coefficient of drug interaction), copper mixed with biocide: Copper (mM) section; for CDI (coefficient of drug interaction), gold + biocide: Gold (μM)
[1] = 1st of 3 copper concentrations (value not shown), 1st of four biocide concentrations
[2] = 1st of 3 copper concentrations (value not shown), 2nd of four biocide concentrations
[3] = 1st of 3 copper concentrations (value not shown), 3rd of four biocide concentrations
[4] = 1st of 3 copper concentrations (value not shown), 4th of four biocide concentrations
[5] = 2nd of 3 copper concentrations (value not shown), 1st of four biocide concentrations
[6] = 2nd of 3 copper concentrations (value not shown), 2nd of four biocide concentrations
[7] = 2nd of 3 copper concentrations (value not shown), 3rd of four biocide concentrations
[8] = 2nd of 3 copper concentrations (value not shown), 4th of four biocide concentrations
[9] = 3rd of 3 copper concentrations (value not shown), 1st of four biocide concentrations
[10] = 3rd of 3 copper concentrations (value not shown), 2nd of four biocide concentrations
[11] = 3rd of 3 copper concentrations (value not shown), 3rd of four biocide concentrations
[12] = 3rd of 3 copper concentrations (value not shown), 4th of four biocide concentrations
[13] = Gold section of Table 5, first of three gold concentrations (μM, value not given), biocide concentration 1 of 4
[14] = Gold section of Table 5, first of three gold concentrations (μM, value not given), biocide concentration 2 of 4
[15] = Gold section of Table 5, first of three gold concentrations (μM, value not given), biocide concentration 3 of 4
[16] = Gold section of Table 5, first of three gold concentrations (μM, value not given), biocide concentration 4 of 4
[17] = Gold section of Table 5, second of three gold concentrations (μM, value not given), biocide concentration 1 of 4
[18] = Gold section of Table 5, second of three gold concentrations (μM, value not given), biocide concentration 2 of 4
[19] = Gold section of Table 5, second of three gold concentrations (μM, value not given), biocide concentration 3 of 4
[20] = Gold section of Table 5, second of three gold concentrations (μM, value not given), biocide concentration 4 of 4
[21] = Gold section of Table 5, third of three gold concentrations (μM, value not given), biocide concentration 1 of 4
[22] = Gold section of Table 5, third of three gold concentrations (μM, value not given), biocide concentration 2 of 4
[23] = Gold section of Table 5, third of three gold concentrations (μM, value not given), biocide concentration 3 of 4
[24] = Gold section of Table 5, third of three gold concentrations (μM, value not given), biocide concentration 4 of 4
[25] = Silver 0.5 μM, biocide concentration 3 of 4
[26] = Silver 0.5 μM, biocide concentration 4 of 4
[27] = Silver 1.0 μM, biocide concentration 3 of 4
[28] = Silver 1.0 μM, biocide concentration 4 of 4
[29] = Silver 5.0 μM, biocide concentration 3 of 4
[30] = Silver 5.0 μM, biocide concentration 4 of 4
[31] = Silver 0.5 μM, 4th of four biocide concentrations, E. coli
[32] = Silver 1.0 μM, 4th of four biocide concentrations, E. coli
[33] = Silver 5.0 μM, 4th of four biocide concentrations, E. coli

SMILES: C[n+]1ccc(-c2cc[n+](C)cc2)cc1 [methyl viologen]
- CDI (coefficient of drug interaction), copper mixed with biocide [1]: 0.85
- CDI (coefficient of drug interaction), copper mixed with biocide [2]: 0.99
- CDI (coefficient of drug interaction), copper mixed with biocide [3]: Tox
- CDI (coefficient of drug interaction), copper mixed with biocide [4]: Tox
- CDI (coefficient of drug interaction), copper mixed with biocide [5]: 0.63
- CDI (coefficient of drug interaction), copper mixed with biocide [6]: 0.77
- CDI (coefficient of drug interaction), copper mixed with biocide [7]: Tox
- CDI (coefficient of drug interaction), copper mixed with biocide [8]: Tox
- CDI (coefficient of drug interaction), copper mixed with biocide [9]: 0.61
- CDI (coefficient of drug interaction), copper mixed with biocide [10]: 0.64
- CDI (coefficient of drug interaction), copper mixed with biocide [11]: Tox
- CDI (coefficient of drug interaction), copper mixed with biocide [12]: Tox
- CDI (coefficient of drug interaction) [13]: 0.99
- CDI (coefficient of drug interaction) [14]: 1.07
- CDI (coefficient of drug interaction) [15]: 0.82
- CDI (coefficient of drug interaction) [16]: 0.08
- CDI (coefficient of drug interaction) [17]: 1.01
- CDI (coefficient of drug interaction) [18]: 1.01
- CDI (coefficient of drug interaction) [19]: 0.66
- CDI (coefficient of drug interaction) [20]: 0.78
- CDI (coefficient of drug interaction) [21]: 1.04
- CDI (coefficient of drug interaction) [22]: 0.98
- CDI (coefficient of drug interaction) [23]: 0.50
- CDI (coefficient of drug interaction) [24]: 0.28
- CDI (Silver 0.5 μM, biocide concentration 1 of 4): 0.89
- CDI (Silver 0.5 μM, biocide concentration 2 of 4): 0.73
- CDI [25]: Tox
- CDI [26]: Tox
- CDI (Silver 1.0 μM, biocide concentration 1 of 4): 0.48
- CDI (Silver 1.0 μM, biocide concentration 2 of 4): 0.20
- CDI [27]: Tox
- CDI [28]: Tox
- CDI (Silver 5.0 μM, biocide concentration 1 of 4): 0.07
- CDI (Silver 5.0 μM, biocide concentration 2 of 4): 0.01
- CDI [29]: Tox
- CDI [30]: Tox

SMILES: CCCCCCCC[N+](C)(CCCCCCCC)CCCCCCCC.[Br-] [Methyltrioctyl NH4+ Br−]
- CDI (coefficient of drug interaction), copper mixed with biocide [1]: 1.05
- CDI (coefficient of drug interaction), copper mixed with biocide [2]: 1.22
- CDI (coefficient of drug interaction), copper mixed with biocide [3]: 1.39
- CDI (coefficient of drug interaction), copper mixed with biocide [4]: Tox
- CDI (coefficient of drug interaction), copper mixed with biocide [5]: 1.08
- CDI (coefficient of drug interaction), copper mixed with biocide [6]: 1.14
- CDI (coefficient of drug interaction), copper mixed with biocide [7]: 1.05
- CDI (coefficient of drug interaction), copper mixed with biocide [8]: Tox
- CDI (coefficient of drug interaction), copper mixed with biocide [9]: 0.87
- CDI (coefficient of drug interaction), copper mixed with biocide [10]: 0.80
- CDI (coefficient of drug interaction), copper mixed with biocide [11]: 0.44
- CDI (coefficient of drug interaction), copper mixed with biocide [12]: Tox
- CDI (coefficient of drug interaction) [13]: 1.06
- CDI (coefficient of drug interaction) [14]: 1.05
- CDI (coefficient of drug interaction) [15]: 1.00
- CDI (coefficient of drug interaction) [16]: Tox
- CDI (coefficient of drug interaction) [17]: 1.14
- CDI (coefficient of drug interaction) [18]: 0.98
- CDI (coefficient of drug interaction) [19]: 0.37
- CDI (coefficient of drug interaction) [20]: Tox
- CDI (coefficient of drug interaction) [21]: 0.96
- CDI (coefficient of drug interaction) [22]: 1.01
- CDI (coefficient of drug interaction) [23]: 0.91
- CDI (coefficient of drug interaction) [24]: Tox
- CDI (coefficient of drug interaction), silver + biocide (Silver 0.5 μM, 1st of four biocide concentrations, E. coli): 1.01
- CDI (coefficient of drug interaction), silver + biocide (Silver 0.5 μM, 2nd of four biocide concentrations, E. coli): 0.90
- CDI (coefficient of drug interaction), silver + biocide (Silver 0.5 μM, 3rd of four biocide concentrations, E. coli): Tox
- CDI (coefficient of drug interaction), silver + biocide [31]: Tox
- CDI (coefficient of drug interaction), silver + biocide (Silver 1.0 μM, 1st of four biocide concentrations, E. coli): 1.04
- CDI (coefficient of drug interaction), silver + biocide (Silver 1.0 μM, 2nd of four biocide concentrations, E. coli): 1.09
- CDI (coefficient of drug interaction), silver + biocide (Silver 1.0 μM, 3rd of four biocide concentrations, E. coli): Tox
- CDI (coefficient of drug interaction), silver + biocide [32]: Tox
- CDI (coefficient of drug interaction), silver + biocide (Silver 5.0 μM, 1st of four biocide concentrations, E. coli): 1.66
- CDI (coefficient of drug interaction), silver + biocide (Silver 5.0 μM, 2nd of four biocide concentrations, E. coli): 1.73
- CDI (coefficient of drug interaction), silver + biocide (Silver 5.0 μM, 3rd of four biocide concentrations, E. coli): Tox
- CDI (coefficient of drug interaction), silver + biocide [33]: Tox

SMILES: Cc1onc(-c2ccccc2Cl)c1C(=O)N[C@@H]1C(=O)N2[C@@H]1SC(C)(C)[C@@H]2C(=O)O [cloxacillin]
- CDI (coefficient of drug interaction) (Copper (mM), 1st of 3 copper concentrations (head line not shown), biocide concentration 4 of 4, E. coli): Tox
- CDI (coefficient of drug interaction) (Copper (mM), 2nd of 3 copper concentrations (head line not shown), biocide concentration 3 of 4, E. coli): Tox
- CDI (coefficient of drug interaction) (Copper (mM), 2nd of 3 copper concentrations (head line not shown), biocide concentration 4 of 4, E. coli): Tox
- CDI (coefficient of drug interaction) (Copper (mM), 3rd of 3 copper concentrations (head line not shown), biocide concentration 4 of 4, E. coli): Tox
- CDI (coefficient of drug interaction), gold + biocide (first of 3 gold concentrations, biocide concentration 4 of 4): Tox
- CDI (coefficient of drug interaction), gold + biocide (second of 3 gold concentrations, biocide concentration 4 of 4): Tox
- CDI (coefficient of drug interaction), gold + biocide (third of 3 gold concentrations, biocide concentration 4 of 4): Tox
- CDI [25]: Tox
- CDI [26]: Tox
- CDI [27]: Tox
- CDI [28]: Tox
- CDI [29]: Tox
- CDI [30]: Tox

SMILES: Nc1c2ccccc2nc2ccccc12 [9-aminoacridine]
- CDI (coefficient of drug interaction), copper mixed with biocide [8]: Tox
- CDI (coefficient of drug interaction), silver + biocide [31]: Tox
- CDI (coefficient of drug interaction), silver + biocide [32]: Tox
- CDI (coefficient of drug interaction), silver + biocide [33]: Tox
